Laboratory results from patent US6680336B2, “Cyclic AMP-specific phosphodiesterase inhibitors” (ICOS Corporation, priority 1999, dated 2004).
Where two headings read alike, the source gives them in different places.

Legend:
[1] = target: T1, recombinant human PDE4; assay: PDE4 inhibition, charcoal separation [32P]cAMP phosphodiesterase assay; format: biochemical
T1 construct: PDE4 IC50; other: human recombinant PDE4
Experimental: The compounds of structural formula (II) were tested for an ability to inhibit PDE4. The ability of a compound to inhibit PDE4 activity is related to the IC50 value for the compound, i.e., the concentration of inhibitor required for 50% inhibition of enzyme activity. The IC50 value for compounds of structural formula (II) were determined using recombinant human PDE4.
Recombinant production of human PDE1B, PDE2, PDE4A, PDE4B, PDE4C, PDE4D, PDE5, and PDE7 was carried out similarly to that described in Example 7 of U.S. Pat. No. 5,702,936, incorporated herein by reference, except that the yeast transformation vector employed, which is derived from the basic ADH2 plasmid described in Price et al., Methods in Enzymology, 185, pp. 308-318 (1990), incorporated yeast ADH2 promoter and terminator sequences and the Saccharomyces cerevisiae host was the protease-deficient strain BJ2-54 deposited on Aug. 31, 1998 with the American Type Culture Collection, Manassas, Va., under accession number ATCC 74465. Transformed host cells were grown in 2×SC-leu medium, pH 6.2, with trace metals, and vitamins. After 24 hours, YEP medium-containing glycerol was added to a final concentration of 2×YET/3% glycerol. Approximately 24 hr later, cells were harvested, washed, and stored at −70° C.
Phosphodiesterase activity of the preparations was determined as follows. PDE assays utilizing a charcoal separation technique were performed essentially as described in Loughney et al. (1996). In this assay, PDE activity converts [32P]cAMP or [32P]cGMP to the corresponding [32P]5′-AMP or [32P]5′-GMP in proportion to the amount of PDE activity present. The [32P]5′-AMP or [32P]5′-GMP then was quantitatively converted to free [32P]phosphate and unlabeled adenosine or guanosine by the action of snake venom 5′-nucleotidase. […] The assay was performed at 30° C. in a 100 μL reaction mixture containing (final concentrations) 40 mM Tris HCl (pH 8.0), 1 μM ZnSO4, 5 mM MgCl2, and 0.1 mg/mL bovine serum albumin (BSA). Alternatively, in assays assessing PDE1-specific activity, incubation mixtures further incorporated the use of 0.1 mM CaCl2 and 10 μg/mL calmodulin. PDE enzyme was present in quantities that yield <30% total hydrolysis of substrate (linear assay conditions). The assay was initiated by addition of substrate (1 mM [32P]cAMP or cGMP), and the mixture was incubated for 12 minutes. Seventy-five (75) μg of Crotalus atrox venom then was added, and the incubation was continued for 3 minutes (15 minutes total). The reaction was stopped by addition of 200 μL of activated charcoal (25 mg/mL suspension in 0.1 M […], pH 4). After centrifugation (750×g for 3 minutes) to sediment the charcoal, a sample of the supernatant was taken for radioactivity determination in a scintillation counter and the PDE activity was calculated.
Inhibitor analyses were performed similarly to the method described in Loughney et al., J. Biol. Chem., 271, pp. 796-806 (1996), except both cGMP and cAMP were used, and substrate concentrations were kept below 32 nM, which is far below the Km of the tested PDEs.

[2] = test system: TNFα secretion in human peripheral blood lymphocytes; assay: Lipopolysaccharide-stimulated TNFα release from human peripheral blood lymphocytes; format: cell-based; conditions: for EC50: Lymphocyte, LPS-stimulated TNFα release from human PBL
Experimental: The compounds of structural formula (II) also were tested for an ability to reduce TNFα secretion in human peripheral blood lymphocytes. The ability to reduce TNFα secretion is related to the EC50 values i.e., the effective concentration pf the compound capable of inhibiting 50% of the total TNFα).
To assess the ability of a compound to reduce TNFα secretion in human peripheral blood lymphocytes (PBL), the following tests were performed.
Heparinized blood (approximately 30 mL) drawn from human volunteers was mixed 1:1 with Dulbecco's modified phosphate-buffered saline. This mixture was mixed 1:1 with HISTOPAQUE® and centrifuged at 1,500 rpm at room temperature without braking in the swinging bucket of a Beckman model TJ6 centrifuge. Erythrocytes were centrifuged to the bottom of the tubes, and serum remained at the surface of the tubes. A layer containing lymphocytes sedimented between the serum and HISTOPAQUE® layers, and was removed by aspiration to a fresh tube. The cells were quantified and adjusted to […] and a 100 μL aliquot is placed into the wells of a 96 well plate. Test compounds and RPMI media (Gibco/BRL Life Sciences) are added to each of the wells 15 minutes prior to addition of bacterial LPS ([…]). The mixture was allowed to incubate for 20 hours at 37° C. in a humidified chamber. The cells then were separated by centrifuging at 800 rpm for 5 minutes at room temperature. An aliquot of 180 μL of supernatant was transferred to a new plate for determination of TNFα concentration. TNFα protein in the cell supernatant fluids was measured using a commercially available enzyme-linked immunosorbent assay (ELISA) (CYTOSCREEN® Immunoassay Kit from Biosource International).
The cell-based assay provided the following results for various pyrrolidine compounds of the present invention. The EC50 values (i.e., effective concentration of the compound capable of inhibiting 50% of the total TNFα) illustrate the ability of the present compounds to inhibit LPS-stimulated TNFα release from human PBL.

[3] = test system: female Balb/c mice; assay: Combined mouse endotoxin-stimulated TNFα release and locomotor activity assay (mobility); format: in vivo
Experimental: The purpose of this study was to determine the efficacy of PDE4 inhibitors in vivo in an LPS mouse model together with a determination with respect to central nervous system (CNS) side-effects manifested by a decrease in spontaneous mobility.
The test animals were female Balb/c mice, having an average weight of about 20 g. […] Individual dose volumes (about 150 μL) were adjusted based on the body weights measured. One hour later, 5 mg/kQ LPS in a final volume of 200 μL was injected via the tail vein to each animal. Ninety minutes following the LPS treatment, the animals were bled and serum samples were collected before being stored at −70° C. until assayed.
Movement of the X-Y plane, or rearing up on the hind legs, was quantified by counting the number of “light-beam” crosses per unit of time. A decrease in the number of activity events is directly proportional to the mobility or immobilization of the animal. The quantitative scoring correlated well with the subjective measurements described above.
The following table summarizes the mouse locomotor activity assay as mobility (% activity) obtained by the above-described method: […]

[4] = in vivo; cited from earlier work
[5] = test system: recombinant human PDE4; conditions: reported value; read-out: IC50 with respect to inhibiting recombinant human PDE4; cited from earlier work

Row | Compound | IC50 [1] [nM] | EC50 [2] [nM] | Mobility (% activity at 50 mg/kg dose) [3] [%] | Emetic potential relative to the (+)-enantiomer [4] | LPS-induced TNFα secretion from human lymphocytes ([2]; preliminary experiments) | IC50 [5] [nM]
1 | CNC(C)[C@]1(C)CN(C(=O)OC)C[C@H]1c1ccc(OC)c(OC2CCCC2)c1 (mixture of isomers) [Example 19, Methyl (3S,4S)-4-(3-cyclopentyloxy-4-methoxyphenyl)-3-methyl-3-[(methylamino)ethylpyrrolidine Carboxylate] | 51.7 | 59 | 145 | – | – | –
2 | COc1ccc([C@@H]2CNC(=O)C2)cc1OC1CCCC1 (single isomer, unassigned) [(−)-enantiomer of rolipram] | – | – | – | about ten-fold more emetic than the (+)-enantiomer | – | –
3 | COc1ccc([C@@H]2CN(Cc3ccccc3)C[C@@]2(C)C(C)N)cc1OC1CCCC1 (single isomer, unassigned) [Example 9] | 57.5 | 609 | 55 | – | – | –
4 | COc1ccc(C2CN(Cc3ccccc3)C[C@@]2(C)C(C)N)cc1OC1CCCC1 (stereo partly shown) [Example 20] | 22 | 198 | 93 | – | – | –
5 | COc1ccc(C2CNC(=O)C2)cc1OC1CCCC1 (stereo not shown) [Rolipram, reference compound] | – | – | – | – | inhibit LPS-induced TNFα secretion from human lymphocytes in a dose-dependent fashion | ~200
6 | COC(=O)N1CC(c2ccc(OC)c(OC3CCCC3)c2)C(C)(C(C)=O)C1 (stereo not shown) [structural formula (I)] | – | – | – | – | – | ~2
